According to the kinase profiling compilation of Christmann-Franck et al. (2016):

Columns and labels:
Experiment in all cases: KINOMEscan competition binding
Details in all cases: compound 10.0 µM
PI4KB (human) = PI4KB (human) (UniProt Q9UBF8)
EPHA3 (human) = EPHA3 (human) (UniProt P29320)
[1] = system: EGFR (human), P00533 [A750P; 747-749 del]
RPS6KA6 KD2 (human) = RPS6KA6 KD2 (human) (UniProt Q9UK32)
PRKCH (human) = PRKCH (human) (UniProt P24723)
CSK (human) = CSK (human) (UniProt P41240)
EPHA1 (human) = EPHA1 (human) (UniProt P21709)
CDK11B (human) = CDK11B (human) (UniProt P21127)
MYLK4 (human) = MYLK4 (human) (UniProt Q86YV6)
[2] = molecular target: JAK2 JH1 catalytic (human) (UniProt O60674)
EIF2AK1 (human) = EIF2AK1 (human) (UniProt Q9BQI3)
WEE1 (human) = WEE1 (human) (UniProt P30291)
PDGFRA (human) = PDGFRA (human) (UniProt P16234)
IRAK1 (human) = IRAK1 (human) (UniProt P51617)
CASK (human) = CASK (human) (UniProt O14936)
TLK1 (human) = TLK1 (human) (UniProt Q9UKI8)
[3] = system: PIK3CA (human), P42336 [H1047L]
RPS6KA5 KD2 (human) = RPS6KA5 KD2 (human) (UniProt O75582)
RPS6KB1 (human) = RPS6KB1 (human) (UniProt P23443)
CIT (human) = CIT (human) (UniProt O14578)
ACVR1 (human) = ACVR1 (human) (UniProt Q04771)
OXSR1 (human) = OXSR1 (human) (UniProt O95747)
PRKACA (human) = PRKACA (human) (UniProt P17612)
MAPK10 (human) = MAPK10 (human) (UniProt P53779)
EPHB4 (human) = EPHB4 (human) (UniProt P54760)
PIP5K1C (human) = PIP5K1C (human) (UniProt O60331)
RIPK4 (human) = RIPK4 (human) (UniProt P57078)
CDK17 (human) = CDK17 (human) (UniProt Q00537)
SGK110 (human) = SGK110 (human) (UniProt P0C264)
PRKD1 (human) = PRKD1 (human) (UniProt Q15139)
MAP3K10 (human) = MAP3K10 (human) (UniProt Q02779)
MAP2K3 (human) = MAP2K3 (human) (UniProt P46734)
ROS1 (human) = ROS1 (human) (UniProt P08922)
STK32A (human) = STK32A (human) (UniProt Q8WU08)
PDPK1 (human) = PDPK1 (human) (UniProt O15530)
CSNK1G3 (human) = CSNK1G3 (human) (UniProt Q9Y6M4)
AKT3 (human) = AKT3 (human) (UniProt Q9Y243)
RPS6KA2 KD2 (human) = RPS6KA2 KD2 (human) (UniProt Q15349)
MLTK (human) = MLTK (human) (UniProt Q9NYL2)
TXK (human) = TXK (human) (UniProt P42681)
Chain of TXK (human) (P42681 whole entry, looked up): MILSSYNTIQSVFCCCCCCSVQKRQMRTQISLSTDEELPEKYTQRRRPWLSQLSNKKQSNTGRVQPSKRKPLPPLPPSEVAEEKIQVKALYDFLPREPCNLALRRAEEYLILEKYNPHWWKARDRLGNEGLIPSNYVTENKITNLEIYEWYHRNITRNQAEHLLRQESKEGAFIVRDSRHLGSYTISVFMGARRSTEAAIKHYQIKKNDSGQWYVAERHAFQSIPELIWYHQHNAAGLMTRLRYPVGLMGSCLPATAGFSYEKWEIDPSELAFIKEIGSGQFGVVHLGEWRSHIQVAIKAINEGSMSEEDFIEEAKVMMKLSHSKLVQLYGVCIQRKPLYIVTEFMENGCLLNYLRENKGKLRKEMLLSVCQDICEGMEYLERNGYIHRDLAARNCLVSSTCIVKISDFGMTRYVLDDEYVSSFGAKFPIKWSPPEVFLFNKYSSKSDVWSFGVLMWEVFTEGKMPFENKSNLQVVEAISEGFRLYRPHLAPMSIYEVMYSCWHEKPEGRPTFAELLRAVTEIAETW

Chain of ROS1 (human) (P08922 whole entry, looked up): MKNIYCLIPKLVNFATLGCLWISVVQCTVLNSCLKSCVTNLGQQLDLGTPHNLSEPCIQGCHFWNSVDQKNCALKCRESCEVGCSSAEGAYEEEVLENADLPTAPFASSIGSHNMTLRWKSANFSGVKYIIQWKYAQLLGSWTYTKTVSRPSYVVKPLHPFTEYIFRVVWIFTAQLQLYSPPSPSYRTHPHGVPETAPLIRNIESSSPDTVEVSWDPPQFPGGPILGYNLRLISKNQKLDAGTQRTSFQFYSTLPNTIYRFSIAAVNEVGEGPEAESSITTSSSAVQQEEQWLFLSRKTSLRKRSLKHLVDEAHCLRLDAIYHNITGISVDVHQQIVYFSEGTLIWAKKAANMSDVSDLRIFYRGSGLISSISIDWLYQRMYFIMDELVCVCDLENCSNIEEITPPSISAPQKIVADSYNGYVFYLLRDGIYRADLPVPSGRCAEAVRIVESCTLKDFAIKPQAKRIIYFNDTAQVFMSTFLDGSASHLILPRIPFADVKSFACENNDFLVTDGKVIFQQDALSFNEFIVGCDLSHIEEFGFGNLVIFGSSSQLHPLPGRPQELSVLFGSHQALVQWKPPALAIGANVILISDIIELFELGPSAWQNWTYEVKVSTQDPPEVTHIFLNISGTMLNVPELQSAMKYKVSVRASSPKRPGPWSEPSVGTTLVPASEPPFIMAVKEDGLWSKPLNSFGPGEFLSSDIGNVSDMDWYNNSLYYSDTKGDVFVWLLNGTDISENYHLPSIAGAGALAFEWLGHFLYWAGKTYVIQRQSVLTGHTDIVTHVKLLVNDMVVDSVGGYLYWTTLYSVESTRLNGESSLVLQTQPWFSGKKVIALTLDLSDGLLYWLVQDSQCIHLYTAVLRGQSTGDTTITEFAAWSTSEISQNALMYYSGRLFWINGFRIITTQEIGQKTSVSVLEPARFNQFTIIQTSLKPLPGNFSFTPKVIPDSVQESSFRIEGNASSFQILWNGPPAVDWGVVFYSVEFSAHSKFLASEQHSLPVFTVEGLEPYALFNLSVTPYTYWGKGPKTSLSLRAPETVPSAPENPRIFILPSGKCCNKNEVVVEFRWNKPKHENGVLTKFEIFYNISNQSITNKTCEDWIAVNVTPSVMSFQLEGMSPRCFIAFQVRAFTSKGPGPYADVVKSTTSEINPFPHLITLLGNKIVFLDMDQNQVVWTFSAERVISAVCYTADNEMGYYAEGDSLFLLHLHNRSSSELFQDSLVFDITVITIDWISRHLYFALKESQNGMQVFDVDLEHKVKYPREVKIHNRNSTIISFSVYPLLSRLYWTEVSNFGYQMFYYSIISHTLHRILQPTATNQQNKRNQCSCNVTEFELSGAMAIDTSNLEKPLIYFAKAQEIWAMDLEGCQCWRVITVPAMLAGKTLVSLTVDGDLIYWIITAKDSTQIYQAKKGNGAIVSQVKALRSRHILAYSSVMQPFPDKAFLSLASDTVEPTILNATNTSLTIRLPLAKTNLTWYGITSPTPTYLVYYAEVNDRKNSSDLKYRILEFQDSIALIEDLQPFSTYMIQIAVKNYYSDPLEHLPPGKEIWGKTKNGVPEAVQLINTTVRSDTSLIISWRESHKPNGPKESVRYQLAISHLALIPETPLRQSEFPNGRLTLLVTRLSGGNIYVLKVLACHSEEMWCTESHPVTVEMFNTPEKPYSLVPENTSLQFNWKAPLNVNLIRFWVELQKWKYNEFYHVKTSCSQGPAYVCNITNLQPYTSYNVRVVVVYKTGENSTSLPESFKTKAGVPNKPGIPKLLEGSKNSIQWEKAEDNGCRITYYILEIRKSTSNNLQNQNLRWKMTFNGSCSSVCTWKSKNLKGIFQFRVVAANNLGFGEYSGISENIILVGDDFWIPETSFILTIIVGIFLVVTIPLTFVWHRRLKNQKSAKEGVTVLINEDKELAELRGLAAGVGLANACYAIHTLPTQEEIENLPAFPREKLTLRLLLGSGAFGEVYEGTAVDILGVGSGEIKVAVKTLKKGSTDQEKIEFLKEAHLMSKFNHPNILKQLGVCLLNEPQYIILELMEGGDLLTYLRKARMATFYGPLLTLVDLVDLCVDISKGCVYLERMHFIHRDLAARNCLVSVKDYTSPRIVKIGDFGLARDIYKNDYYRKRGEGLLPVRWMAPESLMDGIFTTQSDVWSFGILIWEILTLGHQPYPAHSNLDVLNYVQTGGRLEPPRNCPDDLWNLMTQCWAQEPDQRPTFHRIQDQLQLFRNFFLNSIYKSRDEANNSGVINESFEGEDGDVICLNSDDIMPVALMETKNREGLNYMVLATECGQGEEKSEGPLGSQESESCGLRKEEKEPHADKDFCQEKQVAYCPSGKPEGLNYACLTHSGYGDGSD
Chain of MAPK10 (human) (P53779 whole entry, looked up): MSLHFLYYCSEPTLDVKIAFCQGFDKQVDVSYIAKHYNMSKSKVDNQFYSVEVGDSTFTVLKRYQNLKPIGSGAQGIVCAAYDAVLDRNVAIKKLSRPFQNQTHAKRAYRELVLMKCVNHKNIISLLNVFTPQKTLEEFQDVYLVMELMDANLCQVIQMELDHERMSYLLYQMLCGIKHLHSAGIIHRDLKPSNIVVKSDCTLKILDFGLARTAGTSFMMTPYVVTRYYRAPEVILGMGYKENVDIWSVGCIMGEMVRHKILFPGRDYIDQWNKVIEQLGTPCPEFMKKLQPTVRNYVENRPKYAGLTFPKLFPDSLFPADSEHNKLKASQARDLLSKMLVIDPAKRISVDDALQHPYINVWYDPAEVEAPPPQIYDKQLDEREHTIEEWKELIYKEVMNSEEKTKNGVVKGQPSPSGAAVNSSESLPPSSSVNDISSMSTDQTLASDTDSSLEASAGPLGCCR
Chain of PRKCH (human) (P24723 whole entry, looked up): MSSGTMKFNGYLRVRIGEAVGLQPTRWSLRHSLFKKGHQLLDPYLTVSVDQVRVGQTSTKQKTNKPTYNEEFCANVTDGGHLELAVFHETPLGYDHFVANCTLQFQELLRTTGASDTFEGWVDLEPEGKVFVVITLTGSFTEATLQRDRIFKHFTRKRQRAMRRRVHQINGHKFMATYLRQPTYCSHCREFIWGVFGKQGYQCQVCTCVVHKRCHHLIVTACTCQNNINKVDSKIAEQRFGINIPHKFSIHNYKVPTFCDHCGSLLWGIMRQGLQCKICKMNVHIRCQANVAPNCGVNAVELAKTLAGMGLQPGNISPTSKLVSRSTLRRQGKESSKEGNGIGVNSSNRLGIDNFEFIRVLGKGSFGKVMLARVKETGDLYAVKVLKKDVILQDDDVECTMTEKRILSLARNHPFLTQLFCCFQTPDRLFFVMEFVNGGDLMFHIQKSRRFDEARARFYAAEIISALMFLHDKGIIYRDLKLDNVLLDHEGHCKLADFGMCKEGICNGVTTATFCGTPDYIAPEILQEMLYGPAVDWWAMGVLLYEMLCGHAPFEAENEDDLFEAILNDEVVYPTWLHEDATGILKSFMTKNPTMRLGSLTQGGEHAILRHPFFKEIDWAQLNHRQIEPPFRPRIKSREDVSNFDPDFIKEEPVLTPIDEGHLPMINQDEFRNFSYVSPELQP
Chain of IRAK1 (human) (P51617 whole entry, looked up): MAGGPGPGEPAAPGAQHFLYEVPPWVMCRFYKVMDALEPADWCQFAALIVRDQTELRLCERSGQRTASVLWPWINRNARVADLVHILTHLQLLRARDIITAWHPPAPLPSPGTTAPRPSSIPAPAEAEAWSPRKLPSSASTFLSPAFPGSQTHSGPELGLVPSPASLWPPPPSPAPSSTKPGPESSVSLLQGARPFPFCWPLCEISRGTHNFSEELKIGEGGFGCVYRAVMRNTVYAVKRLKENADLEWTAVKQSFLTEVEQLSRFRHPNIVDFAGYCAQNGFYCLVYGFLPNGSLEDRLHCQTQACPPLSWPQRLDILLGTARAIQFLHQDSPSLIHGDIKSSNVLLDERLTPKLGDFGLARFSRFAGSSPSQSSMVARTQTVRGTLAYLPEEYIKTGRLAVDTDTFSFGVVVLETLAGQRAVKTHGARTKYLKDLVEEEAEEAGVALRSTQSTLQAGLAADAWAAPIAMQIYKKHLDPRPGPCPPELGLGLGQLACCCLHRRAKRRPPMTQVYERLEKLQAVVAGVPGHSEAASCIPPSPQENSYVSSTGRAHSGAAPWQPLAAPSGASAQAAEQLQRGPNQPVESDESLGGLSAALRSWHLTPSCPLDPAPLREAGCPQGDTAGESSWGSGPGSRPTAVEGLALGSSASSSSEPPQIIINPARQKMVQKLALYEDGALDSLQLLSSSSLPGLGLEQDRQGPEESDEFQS
Chain of MAP2K3 (human) (P46734 whole entry, looked up): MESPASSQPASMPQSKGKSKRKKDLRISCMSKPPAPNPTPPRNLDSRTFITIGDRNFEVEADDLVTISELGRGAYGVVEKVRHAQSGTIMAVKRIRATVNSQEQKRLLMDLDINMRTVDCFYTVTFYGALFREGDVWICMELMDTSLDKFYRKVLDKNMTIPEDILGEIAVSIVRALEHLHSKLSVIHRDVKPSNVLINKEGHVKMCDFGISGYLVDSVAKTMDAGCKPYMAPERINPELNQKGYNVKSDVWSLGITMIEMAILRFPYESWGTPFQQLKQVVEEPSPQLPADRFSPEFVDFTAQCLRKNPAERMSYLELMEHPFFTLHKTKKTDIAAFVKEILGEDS

Compound	kinase still bound, per cent of control (PI4KB (human))	kinase still bound, per cent of control (EPHA3 (human))	kinase still bound, per cent of control [1]	kinase still bound, per cent of control (RPS6KA6 KD2 (human))	kinase still bound, per cent of control (PRKCH (human))	kinase still bound, per cent of control (CSK (human))	kinase still bound, per cent of control (EPHA1 (human))	kinase still bound, per cent of control (CDK11B (human))	kinase still bound, per cent of control (MYLK4 (human))	kinase still bound, per cent of control [2]	kinase still bound, per cent of control (EIF2AK1 (human))	kinase still bound, per cent of control (WEE1 (human))	kinase still bound, per cent of control (PDGFRA (human))	kinase still bound, per cent of control (IRAK1 (human))	kinase still bound, per cent of control (CASK (human))	kinase still bound, per cent of control (TLK1 (human))	kinase still bound, per cent of control [3]	kinase still bound, per cent of control (RPS6KA5 KD2 (human))	kinase still bound, per cent of control (RPS6KB1 (human))	kinase still bound, per cent of control (CIT (human))	also measured
CCCS(=O)(=O)Nc1ccc(F)c(C(=O)c2c[nH]c3ncc(Cl)cc23)c1F	25%	65%	77%	98%	100%	2.7%	100%	99%	15%	44%	32%	100%	0.2%	60%	51%	58%	100%	86%	58%	66%	kinase still bound, per cent of control (ACVR1 (human)): 100%; kinase still bound, per cent of control (OXSR1 (human)): 24%; kinase still bound, per cent of control (PRKACA (human)): 94%; kinase still bound, per cent of control (MAPK10 (human)): 90%; kinase still bound, per cent of control (EPHB4 (human)): 100%; kinase still bound, per cent of control (PIP5K1C (human)): 79%; kinase still bound, per cent of control (RIPK4 (human)): 89%; kinase still bound, per cent of control (CDK17 (human)): 56%; kinase still bound, per cent of control (SGK110 (human)): 100%; kinase still bound, per cent of control (PRKD1 (human)): 31%; kinase still bound, per cent of control (MAP3K10 (human)): 87%; kinase still bound, per cent of control (MAP2K3 (human)): 53%; kinase still bound, per cent of control (ROS1 (human)): 34%; kinase still bound, per cent of control (STK32A (human)): 85%; kinase still bound, per cent of control (PDPK1 (human)): 85%; kinase still bound, per cent of control (CSNK1G3 (human)): 79%; kinase still bound, per cent of control (AKT3 (human)): 100%; kinase still bound, per cent of control (RPS6KA2 KD2 (human)): 94%; kinase still bound, per cent of control (MLTK (human)): 6%; kinase still bound, per cent of control (TXK (human)): 69%
CNC(=O)Nc1ccc(-c2nc(N3CC4CCC(C3)O4)c3cnn(C4CCC5(CC4)OCCO5)c3n2)cc1	100%	100%	52%	84%	91%	100%	81%	100%	100%	100%	100%	79%	80%	100%	64%	86%	15%	90%	100%	100%	kinase still bound, per cent of control (ACVR1 (human)): 90%; kinase still bound, per cent of control (OXSR1 (human)): 100%; kinase still bound, per cent of control (PRKACA (human)): 75%; kinase still bound, per cent of control (MAPK10 (human)): 86%; kinase still bound, per cent of control (EPHB4 (human)): 100%; kinase still bound, per cent of control (PIP5K1C (human)): 100%; kinase still bound, per cent of control (RIPK4 (human)): 98%; kinase still bound, per cent of control (CDK17 (human)): 100%; kinase still bound, per cent of control (SGK110 (human)): 96%; kinase still bound, per cent of control (PRKD1 (human)): 100%; kinase still bound, per cent of control (MAP3K10 (human)): 100%; kinase still bound, per cent of control (MAP2K3 (human)): 89%; kinase still bound, per cent of control (ROS1 (human)): 81%; kinase still bound, per cent of control (STK32A (human)): 99%; kinase still bound, per cent of control (PDPK1 (human)): 76%; kinase still bound, per cent of control (CSNK1G3 (human)): 48%; kinase still bound, per cent of control (AKT3 (human)): 86%; kinase still bound, per cent of control (RPS6KA2 KD2 (human)): 93%; kinase still bound, per cent of control (MLTK (human)): 77%; kinase still bound, per cent of control (TXK (human)): 94%
COc1cc2c(Nc3ccc(NC(=O)c4ccccc4)cc3)ncnc2cc1OCCCN1CCOCC1	100%	60%	22%	71%	100%	7.9%	100%	16%	100%	72%	20%	100%	2%	66%	100%	78%	99%	100%	7.4%	59%	kinase still bound, per cent of control (ACVR1 (human)): 100%; kinase still bound, per cent of control (OXSR1 (human)): 100%; kinase still bound, per cent of control (PRKACA (human)): 100%; kinase still bound, per cent of control (MAPK10 (human)): 42%; kinase still bound, per cent of control (EPHB4 (human)): 100%; kinase still bound, per cent of control (PIP5K1C (human)): 69%; kinase still bound, per cent of control (RIPK4 (human)): 56%; kinase still bound, per cent of control (CDK17 (human)): 94%; kinase still bound, per cent of control (SGK110 (human)): 100%; kinase still bound, per cent of control (PRKD1 (human)): 99%; kinase still bound, per cent of control (MAP3K10 (human)): 86%; kinase still bound, per cent of control (MAP2K3 (human)): 100%; kinase still bound, per cent of control (ROS1 (human)): 41%; kinase still bound, per cent of control (STK32A (human)): 96%; kinase still bound, per cent of control (PDPK1 (human)): 100%; kinase still bound, per cent of control (CSNK1G3 (human)): 100%; kinase still bound, per cent of control (AKT3 (human)): 100%; kinase still bound, per cent of control (RPS6KA2 KD2 (human)): 100%; kinase still bound, per cent of control (MLTK (human)): 34%; kinase still bound, per cent of control (TXK (human)): 99%
